Experimental data published in publication PMC6891695, “Evaluation of Antifouling Potential and Ecotoxicity of Secondary Metabolites Derived from Red Algae of the Genus Laurencia” (Marine Drugs, 2019).
Like-named read-outs stand apart in the source and are kept apart here.

Experiments:
[1] = in vivo; assay type: in vivo; details: Amphibalanus amphitrite, in vivo, read-out: LC50 Mortality; for LC50 at 24 h: 24 h exposure; for LC50 at 48 h: 48 h exposure; for LC50 at 72 h: 72 h exposure
Procedure: (§1) Adult A. amphitrite (Cirripedia, Balanidae) were collected from boat docks at Port Mikrolimano and Floisvos, Athens, Greece. Animals were cleaned of epibionts with a small hard brush and meticulously identified as individuals of the species. Adult barnacles were kept in separate aerated glass tanks (20 L) containing 200-μm filtered natural seawater at 27 °C and a 12:12 L:D photoperiod. Tanks were fed with 24-h hatched Artemia sp. (Branchiopoda) nauplii and Tetraselmis suecica (Chlorodendrophyceae) and Skeletonema costatum (Bacillariophyceae) algae each day and seawater was changed on alternate days. Upon stress to induce oviposition (exposure to air for 24 h or immersion in fresh water for 5 h), adults were returned to seawater for larval release. Hatched nauplii were attracted to a point light source, collected and placed into a beaker containing 2 or 3 L of 0.7 μm GF/F (GE Healthcare, Little Chalfont, UK )-filtered natural seawater at a density of approximately 1–2 nauplii/mL with gentle aeration. Nauplii were maintained at 27 °C at a 12:12 L:D photoperiod on a diet of C. gracilis (Bacillariophyceae) provided at a density of 2 × 10^5 cells/mL. Cultured in these conditions, nauplii metamorphosed to cyprids in 5 days. Aliquots of these cyprids were collected with a wide-mouthed Pasteur pipette and aged at 4 °C for 1 day prior to use in settlement assays. Only batches of cyprids that were active and had numerous oil cells, representing energy reserves, were used in settlement assays.
(§2) Assays were conducted by adding 10 cyprids into individual wells of a 24-well polystyrene sterile microplate (Orange Scientific, Braine l’Alleud, Belgium) with 2 mL of artificial sea water (ASW) (25‰) and various concentrations of the chemical compounds as listed in Table 1. These experiments were repeated at least three times with four replicates for each concentration of any given compound (n = 120 cyprids/compound). Stock solutions for all compounds were prepared in methanol (Scharlab, Barcelona, Spain) and serial dilutions were prepared in 0.7 μm (GF/F, GE Healthcare, Little Chalfont, UK), filtered sea water to have a final concentration of 2.5% methanol in each assay solution. Plates were covered and sealed with Parafilm® to avoid evaporation and incubated at 25 °C away from any light source and examined after 24, 48 and 72 h. Each animal was inspected under a stereomicroscope and its condition was recorded. […] Both permanently attached and metamorphosed individuals were counted as settled or juveniles. The remainder were counted as ‘no metamorphosis’, i.e. animals that responded to light touch and were still cyprids at the end of the experiments with no overt signs of metamorphosis.
(§3) For EC50 or IC50 (the concentration that results in 50% stimulation or inhibition relative to the control) calculations in GraphPad Prism v.6, all data were fitted to the curve according to the following models for normalized response: Y = 100/(1 + 10^((X − LogIC50))) or Y = 100/(1 + 10^((LogEC50 − X))) depending on the trend of the curve.

[2] = tested on: cyprids of A. amphitrite; experiment: whole plant or invertebrate; assay type: in vivo; details: for EC50 / IC50: Amphibalanus amphitrite; for EC50: read-out: EC50 No Metamorphosis; for EC50 values for settlement inhibition of barnacle cyprids (in words): consistently, 24-72 h
Procedure: as §1, §2, §3

[3] = tested on: RTL-W1 cell line; experiment: RTL-W1 neutral red assay (lysosome activity); assay type: cell-based, rainbow trout; details: Oncorhynchus mykiss, 48 h incubation
Procedure: The RTL-W1 cell line, a non-transformed rainbow trout liver cell line that has already been used in environmental toxicity assays, was established from the normal liver of an adult rainbow trout by proteolytic dissociation of liver fragments. RTL-W1 cells were cultured in 75 cm^2 culture flasks (Orange Scientific, Braine l’Alleud, Belgium) at 20 °C in Leibovitz’s (L-15, Sigma-Aldrich, St. Louis, MO, USA) medium supplemented with 5% fetal bovine serum (FBS) and 1% L-glutamine in CO2-free incubator. For the cytotoxicity assays of the selected secondary metabolites, cells were seeded at 3 × 10^4 cells/well density in a 96-well tissue culture plate (Orange Scientific Braine l’Alleud, Belgium) in 100 μL culture medium/well for 2 days before the assays. Three different cytotoxicity protocols were used: 1) The alamar blue/resazurin fluorometric/colorimetric cell viability assay to assess the metabolic capacity and mitochondrial function; 2) the crystal violet cell viability assay for indirect quantification of cell death; and 3) the neutral red cell proliferation assay for lysosomal activity. Two days after seeding the cells, cultures were incubated with various concentrations of selected secondary metabolites at 20 °C for 48 h before cell viability was assessed. […] For the alamar blue/resazurin fluorometric/colorimetric cell viability assay, 100 μL of 3 μg/100 μL Resazurin sodium salt (Sigma-Aldrich, St. Louis, MO, USA) in incubation medium was added on each well and incubated under sterile conditions at 20 °C for 4 h. For the crystal violet cell viability assay, after 48 h of incubation with each secondary metabolite, the culture medium was aspirated and cells were washed twice with sterile dd. H2O. The final wash was aspirated and 50 μL of 0.5% (w/v) crystal violet staining solution (20% methanol in dd. H2O) was added to each well followed by incubation for 20 min at room temperature on a bench rocker with a frequency of 20 oscillations per minute. The staining solution was then aspirated and the plate was washed four times with sterile dd. H2O and left to air-dry without its lid for 3 h at room temperature. Next, 200 μL of methanol was added to each well, and the plate was incubated with its lid on for 20 min at room temperature on a bench rocker with a frequency of 20 oscillations per minute. […] Absorbance was read at 570 nm for alamar blue/resazurin and crystal violet and at 540 nm for neutral red using a Tecan infinite M200 Pro microplate reader. […] Calculations were carried out using detailed formulas (AbCam, Cambridge, UK, and results were analyzed with GraphPad Prism v.6. […]

[4] = tested on: HEK293 cell line; experiment: HEK293 crystal violet assay (cell viability); assay type: cell-based, human; details: for cytotoxicity in crystal violet assay (in words): HEK293; for EC50: Homo sapiens, HEK293, Crystal violet assay, 48 h incubation
Procedure: (§4) The RTL-W1 cell line, a non-transformed rainbow trout liver cell line that has already been used in environmental toxicity assays, was established from the normal liver of an adult rainbow trout by proteolytic dissociation of liver fragments. RTL-W1 cells were cultured in 75 cm^2 culture flasks (Orange Scientific, Braine l’Alleud, Belgium) at 20 °C in Leibovitz’s (L-15, Sigma-Aldrich, St. Louis, MO, USA) medium supplemented with 5% fetal bovine serum (FBS) and 1% L-glutamine in CO2-free incubator. For the cytotoxicity assays of the selected secondary metabolites, cells were seeded at 3 × 10^4 cells/well density in a 96-well tissue culture plate (Orange Scientific Braine l’Alleud, Belgium) in 100 μL culture medium/well for 2 days before the assays. Three different cytotoxicity protocols were used: 1) The alamar blue/resazurin fluorometric/colorimetric cell viability assay to assess the metabolic capacity and mitochondrial function; 2) the crystal violet cell viability assay for indirect quantification of cell death; and 3) the neutral red cell proliferation assay for lysosomal activity. Two days after seeding the cells, cultures were incubated with various concentrations of selected secondary metabolites at 20 °C for 48 h before cell viability was assessed. […] For the alamar blue/resazurin fluorometric/colorimetric cell viability assay, 100 μL of 3 μg/100 μL Resazurin sodium salt (Sigma-Aldrich, St. Louis, MO, USA) in incubation medium was added on each well and incubated under sterile conditions at 20 °C for 4 h. For the crystal violet cell viability assay, after 48 h of incubation with each secondary metabolite, the culture medium was aspirated and cells were washed twice with sterile dd. H2O. The final wash was aspirated and 50 μL of 0.5% (w/v) crystal violet staining solution (20% methanol in dd. H2O) was added to each well followed by incubation for 20 min at room temperature on a bench rocker with a frequency of 20 oscillations per minute. The staining solution was then aspirated and the plate was washed four times with sterile dd. H2O and left to air-dry without its lid for 3 h at room temperature. Next, 200 μL of methanol was added to each well, and the plate was incubated with its lid on for 20 min at room temperature on a bench rocker with a frequency of 20 oscillations per minute. For the neutral red cell proliferation assay, after 48 h of incubation with each secondary metabolite, the culture medium was aspirated and cells were washed twice with phosphate-buffered saline (PBS, pH 7.4). Cells were then incubated with 100 μL of a 40 μg/mL neutral red staining solution in culture medium at 20 °C for 4 h followed by two washes with 150 μL of PBS. Then cells were incubated with 100 μL neutral red destain solution (50% ethanol, 49% dd. H2O, 1% glacial acetic acid) for 10 min on a bench rocker with a frequency of 80 oscillations per minute. Absorbance was read at 570 nm for alamar blue/resazurin and crystal violet and at 540 nm for neutral red using a Tecan infinite M200 Pro microplate reader. For each assay and each secondary metabolite, a minimum of four independent dose–response experiments with three replicates each were carried out. Calculations were carried out using detailed formulas (AbCam, Cambridge, UK, and results were analyzed with GraphPad Prism v.6.
(§5) HEK293 cells, a human embryotic kidney cell line, were obtained from ATCC (ATCC® CRL-1573™) at passage 37 of the original clone and used at passage 38. Cells were cultured routinely in 75 cm^2 culture flasks (Orange Scientific, Braine l’Alleud, Belgium) at 37 °C (5% CO2) in DMEM cell culture medium (Biosera) supplemented with 10% FBS (Sigma-Aldrich, St. Louis, MO, USA) and 1% L-glutamine. All assay conditions and protocols were identical to those described above for RTL-W1 cells with the exception that incubations were carried out at 37 °C. […]

[5] = tested on: HEK293 cell line; experiment: HEK293 neutral red assay (lysosome activity); assay type: cell-based, human; details: for EC50: Homo sapiens, HEK293, Neutral red assay, 48 h incubation; for effect on lysosomal activity (in words): HEK293
Procedure: as §4, §5

[6] = 24 h, read-out: IC50 Settlement
[7] = 48 h, read-out: IC50 Settlement
[8] = 72 h, read-out: IC50 Settlement

SMILES | LC50 at 24 h [1] | LC50 at 48 h [1] | LC50 at 72 h [1] | EC50 ([2]; 24 h) | IC50 [2, 6] | EC50 ([2]; 48 h) | IC50 [2, 7] | EC50 ([2]; 72 h) | IC50 [2, 8] | animals not progressing to metamorphosis ([2]; in vivo) | EC50 [3] | cytotoxicity in crystal violet assay (in words) [4] | EC50 [4] | EC50 [5] | IC50 ([2]; read-out: IC50 settlement-inhibiting activity) | EC50 values for settlement inhibition of barnacle cyprids (in words) [2] | effect on lysosomal activity (in words) [5]
CC(C)[C@@H]1CC=C[C@H]2[C@H]3[C@](C)(CC[C@]12CBr)[C@@H](Br)CC[C@@]3(C)O [Bromosphaerol, reference compound] | 17.9 µM | 4.57 µM | 2.5 µM | 0.45 µM | 0.58 µM | 0.267 µM | 0.624 µM | 0.561 µM | 0.836 µM | large percentage of animals not progressing to metamorphosis | 144 µM | mild cytotoxicity | 97.1 µM | 340 µM | – | – | –
CC1=C2CC[C@@](C)(Cl)[C@@H](Br)C[C@]2(C)[C@@H](C)[C@@H](Br)[C@@H]1O [Compound 9, perforenol] | 76.2 µM | 116 µM | 49.1 µM | 38.2 µM | 0.52 µM | 47.4 µM | 0.66 µM | 57.8 µM | 0.5 µM | – | > 1000 µM | mild cytotoxicity | 81.1 µM | > 1000 µM | ~0.5 µM | sub-micromolar | not affected
C=CC(C)(O)CC[C@@H]1C(=C)CC[C@@H](Br)[C@@]1(C)CCC1OC1(C)C (stereo partly shown) [Compound 18] | 26.2 µM | 26.3 µM | 20.3 µM | 45.4 µM | 0.046 µM | 50.4 µM | 0.076 µM | 48.5 µM | 0.316 µM | – | 138 µM | – | > 1000 µM | > 1000 µM | – | sub-micromolar | not affected
C=C(C1CCC(C)(O)C(Br)C1)C1C(Br)C2C(CCC2(C)O)C1(C)C (stereo not shown) [Compound 19, neorogioldiol] | 413 µM | 366 µM | 573 µM | 52.8 µM | 0.4 µM | 57.9 µM | 0.915 µM | 70.4 µM | 0.756 µM | – | > 1000 µM | – | 434 µM | > 1000 µM | – | sub-micromolar | not affected
